Experimental data from patent US8030453B2, “Methods of making an antibody that binds a chemerin polypeptide” (Euroscreen S.A., priority 2001, dated 2011).
Read-outs that look alike come from different tables or passages of the source. Peptide text beside a SMILES is read from it.

Molecular target: T1, human ChemerinR (ChemR23) expressed in CHO-K1 cells (Homo sapiens, UniProt Q99788)
T1 construct: This fragment was subcloned into the pcDNA3 (Invitrogen) vector; expressed in transfected cells; host or cells: CHO-K1 (co-expressing mitochondrial apoaequorin and Galpha16)
T1 sequence (Q99788 3-373): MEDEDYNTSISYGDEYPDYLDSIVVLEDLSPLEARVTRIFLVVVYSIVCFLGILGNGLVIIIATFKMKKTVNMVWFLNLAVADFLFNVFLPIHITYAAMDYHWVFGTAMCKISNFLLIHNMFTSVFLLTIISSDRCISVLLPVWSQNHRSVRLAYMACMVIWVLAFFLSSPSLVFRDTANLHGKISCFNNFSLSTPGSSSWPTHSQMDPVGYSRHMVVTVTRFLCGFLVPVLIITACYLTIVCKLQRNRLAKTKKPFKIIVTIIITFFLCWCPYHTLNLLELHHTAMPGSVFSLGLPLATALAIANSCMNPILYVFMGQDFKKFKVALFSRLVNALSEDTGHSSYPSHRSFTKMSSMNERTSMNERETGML
Assay: aequorin-based intracellular Ca2+ release assay
Type: cell-based
Protocol: Briefly, ChemerinR-expressing clones are transfected to coexpress mitochondrial apoaequorin and Gα16. Cells are incubated with 5 μM Coelenterazine H (Molecular Probes) for 4 hours at room temperature, washed in DMEM-F12 culture medium and resuspended at a concentration of 0.5×10^6 cells/ml. Cells are then mixed with test agonist peptides and light emission by the aequorin is recorded with a luminometer for 30 sec. Results are expressed as Relative Light Units (RLU). Controls include assays using membranes isolated from cells not expressing ChemerinR (mock-transfected), in order to exclude possible non-specific effects of the candidate compound.
ChemerinR-expres sing clones have been obtained by transfection of CHO-K1 cells to coexpressing mitochondrial apoaequorin and Gα16, limiting dilution and selection by northern blotting. Positive clones were used for screening with human ovarian cancer ascites extracts prepared as described above. […] Briefly, cells were collected from plates in PBS containing 5 mM EDTA, pelleted and resuspended at 5×10^6 cells/ml in DMEM-F12 medium. Cells were incubated with 5 μM Coelenterazine H (Molecular Probes) for 4 hours at room temperature. Cells were then washed in DMEM-F12 medium and resuspended at a concentration of 0.5×10^6 cells/ml. Cells were then mixed with test agonist peptides or plates containing tissue extracts and the light emission was recorded for 30 sec using a Microlumat luminometer (Perkin Elmer). Results are expressed as Relative Light Units (RLU).

[1] = truncated Chemerin peptides, values given in μM, read-out: Mean EC50

| Molecule | EC50 [µM] | also measured |
| --- | --- | --- |
| QRAGEDPHSFYFPGQ |  | Mean EC50 (result in words): inactif |
| C[C@H](NC(=O)[C@H](C)NC(=O)[C@H](Cc1ccccc1)NC(=O)[C@H](CCC(N)=O)NC(=O)CNC(=O)[C@@H]1CCCN1C(=O)[C@H](Cc1ccccc1)NC(=O)[C@@H](N)Cc1ccc(O)cc1)C(=O)N[C@@H](CO)C(=O)O [Human [Ala-8] Chemerin-9] (H-YFPGQFAAS-OH; N-terminus and C-terminus assumed) |  | EC50 [1]: 38 ± 7 µM |
| C[C@H](NC(=O)[C@H](Cc1ccccc1)NC(=O)[C@H](CCC(N)=O)NC(=O)CNC(=O)[C@@H]1CCCN1C(=O)[C@@H](N)Cc1ccccc1)C(=O)N[C@@H](Cc1ccccc1)C(=O)N[C@@H](CO)C(=O)O [Human Chemerin-8] (H-FPGQFAFS-OH; N-terminus and C-terminus assumed) | 2 ± 1 |  |
| C[C@H](NC(=O)[C@H](CCCNC(=N)N)NC(=O)[C@@H](N)CCC(N)=O)C(=O)NCC(=O)N[C@@H](CCC(=O)O)C(=O)N[C@@H](CC(=O)O)C(=O)N1CCC[C@H]1C(=O)N[C@@H](Cc1c[nH]cn1)C(=O)N[C@@H](CO)C(=O)N[C@@H](Cc1ccccc1)C(=O)N[C@@H](Cc1ccc(O)cc1)C(=O)N[C@@H](Cc1ccccc1)C(=O)N1CCC[C@H]1C(=O)NCC(=O)N[C@@H](CCC(N)=O)C(=O)N[C@@H](Cc1ccccc1)C(=O)O [Human [ΔAla17Phe18Ser19] Chemerin-19] (H-QRAGEDPHSFYFPGQF-OH) | 130 ± 10 |  |
| C[C@H](NC(=O)[C@H](Cc1ccccc1)NC(=O)[C@H](CCC(N)=O)NC(=O)CNC(=O)[C@@H]1CCCN1C(=O)[C@H](Cc1ccccc1)NC(=O)[C@H](Cc1ccc(O)cc1)NC(=O)[C@H](Cc1ccccc1)NC(=O)[C@H](CO)NC(=O)[C@H](Cc1c[nH]cn1)NC(=O)[C@@H]1CCCN1)C(=O)N[C@@H](Cc1ccccc1)C(=O)N[C@@H](CO)C(=O)O [Human Chemerin-13] (H-PHSFYFPGQFAFS-OH) | 0.014 |  |
| CC(C)C[C@H](NC(=O)[C@H](C)NC(=O)[C@H](CCCCN)NC(=O)[C@H](CO)NC(=O)[C@H](Cc1ccccc1)NC(=O)[C@H](C)NC(=O)[C@H](Cc1ccccc1)NC(=O)[C@H](CCC(N)=O)NC(=O)CNC(=O)[C@@H]1CCCN1C(=O)[C@H](Cc1ccccc1)NC(=O)[C@H](Cc1ccc(O)cc1)NC(=O)[C@H](Cc1ccccc1)NC(=O)[C@H](CO)NC(=O)[C@H](Cc1c[nH]cn1)NC(=O)[C@@H]1CCCN1C(=O)[C@H](CC(=O)O)NC(=O)[C@H](CCC(=O)O)NC(=O)CNC(=O)[C@H](C)NC(=O)[C@H](CCCNC(=N)N)NC(=O)[C@@H](N)CCC(N)=O)C(=O)N1CCC[C@H]1C(=O)N[C@@H](CCCNC(=N)N)C(=O)N[C@@H](CO)C(=O)O [Human prochemerin-25] (H-QRAGEDPHSFYFPGQFAFSKALPRS-OH; N-terminus and C-terminus assumed) |  | EC50 [1]: 160 ± 21 µM |
| C[C@H](NC(=O)[C@H](Cc1ccccc1)NC(=O)[C@H](CCC(N)=O)NC(=O)CNC(=O)[C@@H]1CCCN1C(=O)[C@H](Cc1ccccc1)NC(=O)[C@H](Cc1ccc(O)cc1)NC(=O)[C@H](Cc1ccccc1)NC(=O)[C@H](CO)NC(=O)[C@H](Cc1c[nH]cn1)NC(=O)[C@@H]1CCCN1C(=O)[C@H](CC(=O)O)NC(=O)[C@H](CCC(=O)O)NC(=O)CNC(=O)[C@H](C)NC(=O)[C@H](CCCNC(=N)N)NC(=O)[C@@H](N)CCC(N)=O)C(=O)N[C@@H](Cc1ccccc1)C(=O)N[C@@H](CO)C(=O)O [Human Chemerin-19] (H-QRAGEDPHSFYFPGQFAFS-OH) | 0.0167 ± 0.0032 |  |
| C[C@H](NC(=O)[C@H](Cc1ccccc1)NC(=O)[C@H](CCC(N)=O)NC(=O)CNC(=O)[C@@H]1CCCN1C(=O)[C@H](Cc1ccccc1)NC(=O)[C@H](Cc1ccc(O)cc1)NC(=O)[C@@H](N)Cc1ccccc1)C(=O)N[C@@H](Cc1ccccc1)C(=O)N[C@@H](CO)C(=O)O [Human Chemerin-10] (H-FYFPGQFAFS-OH; N-terminus and C-terminus assumed) | 0.0082 ± 0.002 |  |
| C[C@H](NC(=O)[C@H](Cc1ccccc1)NC(=O)[C@H](CCC(N)=O)NC(=O)CNC(=O)[C@@H]1CCCN1C(=O)[C@H](C)NC(=O)[C@@H](N)Cc1ccc(O)cc1)C(=O)N[C@@H](Cc1ccccc1)C(=O)N[C@@H](CO)C(=O)O [Human [Ala-2] Chemerin-9] (H-YAPGQFAFS-OH; N-terminus and C-terminus assumed) |  | EC50 (truncated Chemerin peptides, values in nM, read-out: Mean EC50): 0.155 ± 0.0416 µM |
| C[C@H](NC(=O)[C@H](Cc1ccccc1)NC(=O)[C@H](CCC(N)=O)NC(=O)CNC(=O)[C@@H]1CCCN1C(=O)[C@H](Cc1ccccc1)NC(=O)[C@H](Cc1ccc(O)cc1)NC(=O)[C@H](Cc1ccccc1)NC(=O)[C@H](CO)NC(=O)[C@@H](N)Cc1c[nH]cn1)C(=O)N[C@@H](Cc1ccccc1)C(=O)N[C@@H](CO)C(=O)O [Human Chemerin-12] (H-HSFYFPGQFAFS-OH; N-terminus and C-terminus assumed) | 0.0122 ± 0.0034 |  |
| C[C@H](NC(=O)[C@H](Cc1ccccc1)NC(=O)[C@H](CCC(N)=O)NC(=O)CNC(=O)[C@@H]1CCCN1)C(=O)N[C@@H](Cc1ccccc1)C(=O)N[C@@H](CO)C(=O)O [Human Chemerin-7, PGQFAFS] (H-PGQFAFS-OH) | 220 ± 100 |  |
| C[C@H](NC(=O)[C@H](C)NC(=O)[C@H](CCC(N)=O)NC(=O)CNC(=O)[C@@H]1CCCN1C(=O)[C@H](Cc1ccccc1)NC(=O)[C@@H](N)Cc1ccc(O)cc1)C(=O)N[C@@H](Cc1ccccc1)C(=O)N[C@@H](CO)C(=O)O [Human [Ala-6] Chemerin-9] (H-YFPGQAAFS-OH; N-terminus and C-terminus assumed) |  | EC50 [1]: 5 ± 1 µM |
| C[C@H](NC(=O)[C@H](Cc1ccccc1)NC(=O)[C@H](CCC(N)=O)NC(=O)CNC(=O)[C@@H]1CCCN1C(=O)[C@H](Cc1ccccc1)NC(=O)[C@H](Cc1ccc(O)cc1)NC(=O)[C@H](Cc1ccccc1)NC(=O)[C@H](CO)NC(=O)[C@H](Cc1c[nH]cn1)NC(=O)[C@@H]1CCCN1C(=O)[C@H](CC(=O)O)NC(=O)[C@H](CCC(=O)O)NC(=O)CNC(=O)[C@H](C)NC(=O)[C@H](CCCNC(=N)N)NC(=O)[C@@H](N)CCC(N)=O)C(=O)N[C@@H](Cc1ccccc1)C(=O)N[C@@H](CO)C(=O)N[C@@H](CCCCN)C(=O)O [Human [Lys20] Chemerin-19] (H-QRAGEDPHSFYFPGQFAFSK-OH) | 170 |  |
| C[C@H](N)C(=O)N[C@@H](Cc1ccccc1)C(=O)N1CCC[C@H]1C(=O)NCC(=O)N[C@@H](CCC(N)=O)C(=O)N[C@@H](Cc1ccccc1)C(=O)N[C@@H](C)C(=O)N[C@@H](Cc1ccccc1)C(=O)N[C@@H](CO)C(=O)O [Human [Ala-1] Chemerin-9] (H-AFPGQFAFS-OH; N-terminus and C-terminus assumed) | 0.496 ± 0.08 |  |
| C[C@H](NC(=O)[C@H](Cc1ccccc1)NC(=O)[C@H](CCC(N)=O)NC(=O)CNC(=O)[C@@H]1CCCN1C(=O)[C@H](Cc1ccccc1)NC(=O)[C@H](Cc1ccc(O)cc1)NC(=O)[C@H](Cc1ccccc1)NC(=O)[C@H](CO)NC(=O)[C@H](Cc1c[nH]cn1)NC(=O)[C@@H]1CCCN1C(=O)[C@H](CC(=O)O)NC(=O)[C@H](CCC(=O)O)NC(=O)CNC(=O)[C@H](C)NC(=O)[C@H](CCCNC(=N)N)NC(=O)[C@@H](N)CCC(N)=O)C(=O)O [Human [ΔPhe18Ser19] Chemerin-19] (H-QRAGEDPHSFYFPGQFA-OH; N-terminus and C-terminus assumed) | 220 |  |
| C[C@H](NC(=O)[C@H](Cc1ccccc1)NC(=O)[C@H](CCC(N)=O)NC(=O)CNC(=O)[C@@H]1CCCN1C(=O)[C@H](Cc1ccccc1)NC(=O)[C@H](Cc1ccc(O)cc1)NC(=O)[C@H](Cc1ccccc1)NC(=O)[C@H](CO)NC(=O)[C@H](Cc1c[nH]cn1)NC(=O)[C@@H]1CCCN1C(=O)[C@H](CC(=O)O)NC(=O)[C@H](CCC(=O)O)NC(=O)CNC(=O)[C@H](C)NC(=O)[C@H](CCCNC(=N)N)NC(=O)[C@@H](N)CCC(N)=O)C(=O)N[C@@H](Cc1ccccc1)C(=O)O [Human [ΔSer19] Chemerin-19] (H-QRAGEDPHSFYFPGQFAF-OH; N-terminus and C-terminus assumed) | 0.097 ± 0.013 |  |
| truncated PreprocHEMERIN: 157 amino acid truncated Preprochemerin polypeptide (SEQ ID NO: 73, FIG. 16) (protein, listed as Homo sapiens) MRRLLIPLALWLGAVGVGVAELTEAQRRGLQVALEEFHKHPPVQWAFQETSVESAVDTPFPAGIFVRLEFKLQQTSCRKRDWKKPECKVRPNGRKRKCLACIKLGSEDKVLGRLVHCPIETQVLREAEEHQETQCLRVQRAGEDPHSFYFPGQFAFS |  | EC50 (CHO cells expressing ChemerinR, aequorin assay, read-out: EC50 for activation of ChemerinR): 0.00427 µM |
